In ChEMBL document CHEMBL1130530, “3D QSAR analysis of taxoids from Taxus cuspidata var. nana by comparative molecular field approach” (Bioorg Med Chem Lett, 1997):

The molecules below were run on P388 (assay: Actual inhibitory activity in P388 leukemia cells by CoMFA analysis, expressed as log 1/IC50.). Conditions: Mus musculus, P388, read-out: Log 1/IC50 (converted).
Assay type: functional, cell-based

| IC50 [nM] | Structure (SMILES) |
| --- | --- |
| 47.9 | CC(=O)O[C@@H]1C2=C(C)C(=O)C[C@@](O)([C@@H](OC(=O)c3ccccc3)[C@@H]3[C@]4(OC(C)=O)CO[C@@H]4C[C@H](O)[C@@]3(C)[C@H]1O)C2(C)C |
| 28.9 | CC(=O)O[C@H]1C[C@@]2(O)[C@@H](OC(=O)c3ccccc3)[C@@H]3[C@]4(OC(C)=O)CO[C@@H]4C[C@H](O)[C@@]3(C)[C@@H](O)[C@H](O)C(=C1C)C2(C)C |
| 63.2 | C=C1[C@H]2C[C@@H]3C[C@H](O)C(C)=C([C@@H](OC(C)=O)[C@H](OC(C)=O)[C@]2(C)[C@@H](OC(C)=O)C[C@@H]1O)C3(C)C |
| 10 | C=C1[C@@H](OC(=O)/C=C/c2ccccc2)C[C@H](OC(C)=O)[C@@]2(C)[C@@H](OC(C)=O)[C@H](OC(C)=O)C3=C(C)C(=O)C[C@@H]([C@@H](OC(C)=O)[C@H]12)C3(C)C |
| 16.6 | C=C1[C@@H](OC(C)=O)CC[C@@]2(C)[C@@H](OC(C)=O)[C@H](OC(C)=O)C3=C(C)[C@@H](OC(C)=O)C[C@@H]([C@@H](OC(C)=O)[C@H]12)C3(C)C |
| 18.2 | CCCCCCC(=O)N[C@@H](c1ccccc1)[C@@H](O)C(=O)O[C@H]1C[C@@]2(O)[C@@H](OC(=O)c3ccccc3)[C@@H]3[C@]4(OC(C)=O)CO[C@@H]4C[C@H](O)[C@@]3(C)C(=O)[C@H](OC(C)=O)C(=C1C)C2(C)C |
| 66.1 | CC(=O)O[C@@]12CO[C@@H]1C[C@H](O)[C@@]1(C)C(=O)[C@H](O)C3=C(C)[C@@H](OC(=O)[C@H](O)[C@@H](NC(=O)C4CCC4)c4ccccc4)C[C@@](O)([C@@H](OC(=O)c4ccccc4)[C@H]21)C3(C)C |
| 10 | C=C1[C@@H](OC(=O)/C=C/c2ccccc2)CC[C@@]2(C)[C@@H](OC(C)=O)[C@H](OC(C)=O)C3=C(C)C(=O)C[C@@H]([C@@H](OC(C)=O)[C@H]12)C3(C)C |
| 66.1 | C=C1[C@@H](O)C[C@H](OC(C)=O)[C@@]2(C)[C@@H](OC(C)=O)[C@H](OC(C)=O)C3=C(C)C(=O)C[C@@H]([C@@H](OC(C)=O)[C@H]12)C3(C)C |
| 47.9 | CC(=O)O[C@H]1C[C@H]2[C@@H](OC(C)=O)CC3C[C@](C)(C(=O)[C@H](O)C(=C1C)C2(C)C)[C@@H](O)C[C@@H]3OC(=O)/C=C/c1ccccc1 |
| 10 | CC(=O)O[C@H]1C[C@@]2(O)[C@@H](OC(C)=O)[C@@H]3[C@@]4(CO4)[C@@H](OC(C)=O)C[C@H](OC(C)=O)[C@@]3(C)[C@@H](OC(C)=O)[C@H](OC(C)=O)C(=C1C)C2(C)C |
| 14.1 | CC(=O)O[C@H]1[C@@H]2[C@H](CO)[C@@H](OC(C)=O)C[C@H](OC(C)=O)[C@@]2(C)[C@@H](OC(C)=O)[C@H](OC(C)=O)C2=C(C)[C@@H](OC(C)=O)C[C@@H]1C2(C)C |
| 12.3 | C=C1[C@H]2C[C@@H]3CC(=O)C(C)=C([C@@H](OC(C)=O)[C@H](OC(C)=O)[C@]2(C)[C@@H](OC(C)=O)C[C@@H]1O)C3(C)C |
| 89.2 | CCCCCC(=O)N[C@@H](c1ccccc1)[C@@H](O)C(=O)O[C@H]1C[C@@]2(O)[C@@H](OC(=O)c3ccccc3)[C@@H]3[C@]4(OC(C)=O)CO[C@@H]4C[C@H](O)[C@@]3(C)C(=O)[C@@H](O)C(=C1C)C2(C)C |
| 52.5 | CC(=O)O[C@H]1C[C@@]2(O)[C@@H](OC(=O)c3ccccc3)[C@@H]3[C@]4(OC(C)=O)CO[C@@H]4C[C@H](O)[C@@]3(C)[C@@H](O)[C@H](OC(C)=O)C(=C1C)C2(C)C |
| 43.7 | C=C1[C@H]2C[C@@H]3C[C@H](OC(C)=O)C(C)=C([C@@H](OC(C)=O)[C@H](OC(C)=O)[C@]2(C)[C@@H](OC(C)=O)C[C@@H]1O)C3(C)C |
| 25.1 | C=C1[C@H]2C[C@]3(O)C[C@H](O)C(C)=C([C@@H](OC(C)=O)[C@H](OC(C)=O)[C@]2(C)[C@@H](OC(=O)c2ccccc2)C[C@@H]1O)C3(C)C |
| 100 | CC(=O)O[C@@]12CO[C@@H]1C[C@H](O)[C@]1(C)[C@@H]2[C@H](OC(=O)c2ccccc2)[C@]2(O)CC(=O)C(C)=C([C@@H](O)[C@@H]1O)C2(C)C |
| 12.3 | CC(=O)OC[C@H]1[C@H]2[C@H](O)[C@@H]3C[C@H](OC(C)=O)C(C)=C([C@@H](OC(C)=O)[C@H](OC(C)=O)[C@]2(C)[C@@H](OC(C)=O)C[C@@H]1OC(C)=O)C3(C)C |
| 40.8 | CCCCCC(=O)N[C@@H](c1ccccc1)[C@@H](O)C(=O)O[C@H]1C[C@@]2(O)[C@@H](OC(=O)c3ccccc3)[C@@H]3[C@]4(OC(C)=O)CO[C@@H]4C[C@H](O)[C@@]3(C)C(=O)[C@H](O)C(=C1C)C2(C)C [10-DEACETYLTAXAYUNNANINE A] |
| 12.6 | C=C1[C@@H](O)C[C@H](OC(C)=O)[C@@]2(C)[C@@H](OC(C)=O)[C@H](OC(C)=O)C3=C(C)[C@@H](OC(C)=O)C[C@@H]([C@@H](OC(C)=O)[C@H]12)C3(C)C [DECINNAMOYLTAXININE J] |
| 21.9 | CC(=O)O[C@H]1C(=O)[C@@]2(C)[C@H]([C@H](OC(=O)c3ccccc3)[C@]3(O)C[C@H](OC(=O)[C@H](O)[C@@H](NC(=O)c4ccccc4)c4ccccc4)C(C)=C1C3(C)C)[C@]1(OC(C)=O)CO[C@@H]1C[C@@H]2O [PACLITAXEL] |
| 10 | C=C1[C@@H](OC(=O)/C=C/c2ccccc2)C[C@H](OC(C)=O)[C@@]2(C)[C@@H](OC(C)=O)[C@H](OC(C)=O)[C@]3(O)[C@@]4(C)CO[C@]3(C)C(=O)C[C@H]4[C@@H](OC(C)=O)[C@H]12 [TAXAGIFINE] |
| 81.4 | CCCCCC(=O)N[C@@H](c1ccccc1)[C@@H](O)C(=O)O[C@H]1C[C@@]2(O)[C@@H](OC(=O)c3ccccc3)[C@@H]3[C@]4(OC(C)=O)CO[C@@H]4C[C@H](O)[C@@]3(C)C(=O)[C@H](OC(C)=O)C(=C1C)C2(C)C [TAXOL C] |

| Structure (SMILES) | IC50 [nM] |
| --- | --- |
| CC(=O)O[C@@]12CO[C@@H]1C[C@H](O)[C@@]1(C)C(=O)[C@H](O)C3=C(C)[C@@H](OC(=O)[C@H](O)[C@@H](NC(=O)c4ccccc4)c4ccccc4)C[C@@](O)([C@@H](OC(=O)c4ccccc4)[C@H]21)C3(C)C | 42.7 |
| CC(=O)O[C@H]1C(=O)[C@@]2(C)[C@H]([C@H](OC(=O)c3ccccc3)[C@]3(O)C[C@H](O)C(C)=C1C3(C)C)[C@]1(OC(C)=O)CO[C@@H]1C[C@@H]2O [BACCATIN III] | 63.2 |
| C=C1[C@@H](O)C[C@H](OC(C)=O)[C@@]2(COC(=O)c3ccccc3)[C@@H](OC(C)=O)[C@H](OC(C)=O)[C@]3(O)[C@@]4(C)CO[C@]3(C)C(=O)C[C@H]4[C@@H](OC(C)=O)[C@H]12 [TAXININ M] | 26.9 |
